Experiment [1] addresses T1, JAK2(JH1domain-catalytic) (Homo sapiens, UniProt O60674).
T1 construct: JAK2(JH1domain-catalytic); purchased DiscoveRx (Fremont, CA)
Briefly: KinomeScan. Format: binding. The conditions noted are these: read-out: % Control.

The next experiment deals with T2, CCR3 (Homo sapiens, UniProt P51677).
T2 construct: host or cells: Chem-1 cells with Gα15
Briefly: GPCR Profiler. Format: cell-based.

For another experiment, the target named is T3, PLK1 (Homo sapiens, UniProt P53350).
T3 construct: purchased DiscoveRx (Fremont, CA)
The experiment is described as follows: KinomeScan. Format: binding. The conditions noted are these: read-out: % Control.

The target of the next experiment is T4, ZAK (Homo sapiens, UniProt Q9NYL2).
T4 construct: purchased DiscoveRx
The experiment is described as follows: KinomeScan. The experiment is classed as binding. The settings on record: read-out: % Control.

Another experiment deals with T5, BRSK2 (Homo sapiens, UniProt Q8IWQ3).
T5 construct: purchased DiscoveRx (KinomeScan service)
The experiment is described as follows: KinomeScan. The conditions noted are these: read-out: % Control. The experiment is classed as binding.

The next experiment deals with T6, MAP3K15 (Homo sapiens, UniProt Q6ZN16).
T6 construct: purchased DiscoveRx (Fremont, CA)
The experiment is described as follows: KinomeScan. Format: binding. The settings on record: read-out: % Control.

The target in experiment [2] is T7, RSK3(Kin.Dom.2-C-terminal) (Homo sapiens, UniProt Q15349).
T7 construct: RSK3(Kin.Dom.2-C-terminal); purchased DiscoveRx (Fremont, CA)
Briefly: KinomeScan. The conditions noted are these: read-out: % Control. The experiment is classed as binding.

The target of another experiment is T8, BB2 (Homo sapiens, UniProt P30550).
T8 construct: host or cells: Chem-1 cells with promiscuous Gα15
Briefly: GPCR Profiler. The experiment is classed as cell-based.

Another experiment deals with T9, OT (Homo sapiens, UniProt P30559).
T9 construct: host or cells: Chem-1 cells expressing Gα15
Briefly: GPCR Profiler. The experiment is classed as cell-based.

Another experiment addresses T10, PK1 (Homo sapiens, UniProt Q8TCW9).
T10 construct: host or cells: Chem-1 cells with Gα15
Briefly: GPCR Profiler. Format: cell-based.

The target of the next experiment is T11, P2Y11 (Homo sapiens, UniProt Q96G91).
T11 construct: host or cells: Chem-1 cells expressing Gα15
The experiment is described as follows: GPCR Profiler. The experiment is classed as cell-based.

Experiment [3] has as its target T12, RSK1(Kin.Dom.1-N-terminal) (Homo sapiens, UniProt Q15418).
T12 construct: RSK1(Kin.Dom.1-N-terminal); purchased DiscoveRx (Fremont, CA)
Briefly: KinomeScan. Format: binding. The conditions noted are these: read-out: % Control.

The next experiment deals with T13, EPHA6 (Homo sapiens, UniProt Q9UF33).
T13 construct: purchased DiscoveRx (Fremont, CA)
Briefly: KinomeScan. The settings on record: read-out: % Control. The experiment is classed as binding.

Another experiment deals with T14, PIP5K2C (Homo sapiens, UniProt Q8TBX8).
T14 construct: purchased DiscoveRx (Fremont, CA)
Briefly: KinomeScan. Format: binding. The settings on record: read-out: % Control.

A further experiment concerns the target GPR68 (Homo sapiens, UniProt Q15743). The experiment is described as follows: Flow-induced calcium response, Chem1-GPR68 cells. The experiment is classed as cell-based. Also noted: host or cells: Chem-1 cells (Chem1-OGR1). The settings on record: 5-minute pre-incubation with 3 μM OGM2. Here is the method:
Chem1-GPR68 cells were stained with calcium indicator dye, and then exposed to 34 dyn/cm^2 (3.4 Pa) of force, generating a robust calcium response that could be inhibited by a 5-minute pre-incubation with 3 μM OGM2. […] Of note, one example of a method to enhance expression of ATF4 gene is using CRISPRa with sgRNA targeting the ATF4 gene, including with the s RNAs with the following sequences: […]

The next experiment has as its system NCI-H82. Briefly: Cell Titer-Glo viability, Lung cancer, small cell. Format: cell-based. Here is the method:
(§1) OGM2 kills wide variety of cancer cell types. Cell sensitivity can be classified in to Very Sensitive (LC50<2 μM), Sensitive (LC50=2 to 10 μM), Mildly Sensitive (LC50>10 μM), and Refractory (no killing at 10 μM). The listed established cell were incubated with OGM2 at 2 μM or 10 μM for 72 hours under standard cell culture conditions, and relative cell number was assessed using Cell Titer-Glo Luminescent Cell Viability Assay (Promega™) following the manufacturer's instructions. Luminescence was determined using a Cytation 5 reader and Gen5 software package (BioTek™).
(§2) Cancer cells, which are very sensitive to killing by OGM2 (LCs <2 μM), with reported mRNA expression of GPR68 and the related proton sensing receptor GPR4. LC50's (concentrations causing 50% lethality) were determined using CellTiter-Glo (Promega™, G7570). Cells were plated in 12-well plates (CELLTREAT Scientific Products, 229112) in 1 ml of DMEM with high glucose, GlutaMAX, HEPES, or RPMI 1640 with Penicillin-Streptomycin (ThermoFisher™, 10564029, 11875119 and 15140122) and 10% FBS. Cells were incubated overnight at 37° C. in 5% CO2. Then 1 mL of fresh media was added with DMSO, OGM, or positive control (Erastin; APExBIO Technology, LLC, B1524) and cells incubated for 3 days. On the third day, all media was removed, cells were rinsed with 1×PBS, PBS was removed, and 200 μL of 1× Passive Lysis Buffer (Promega™, E1941) was added to each well. […]. Subsequently, 20 μL of lysate was added to 100 μL CellTiter-Glo™ reagent on a LUMITRAC 200 plate (Greiner™ bio-one, 82050-726). Plates were briefly spun down and read on a GloMax-Multi Detection System (Promega™).
(§3) The cells listed in the tables above were incubated with OGM2 at 2 μM or 10 μM for 72 hours under standard cell culture conditions, and relative cell number was assessed using Cell Titer-Glo Luminescent Cell Viability Assay (Promega™) following the manufacturer's instructions. Luminescence was determined using a Cytation 5 reader and Gen5 software package (BioTek™). RNA expression of GPR68 and GPR4 in the corresponding cancer cell lines are listed, according to the publicly available The Human Protein Atlas version 22.0 and Ensembl version 103.38 (see proteinatlas.org). The consensus normalized expression value (“nTPM”=normalize transcript per million) was calculated as the maximum nTPM value for each gene in the two data sources.

The test system of a further experiment is PANC02. The experiment is described as follows: Scratch migration. The conditions noted are these: 10 μM OGM2, 24 hours. The experiment is classed as cell-based. Here is the method: In a second study. PANC02 pancreatic cells plated and grown to confluence. Using a P200 tip, cells were denuded and allowed to migrate for 24 hours in DMSO or 10 μM OGM2 and imaged.

In the next experiment the test system is RWGT2. Briefly: Cell Titer-Glo viability, Lung cancer, squamous cell. The experiment is classed as cell-based. Here is the method: as §1, §2, §3

The structures appear in SMILES notation. Like-named read-outs stand apart in the source and are kept apart here. Where only a bound is given, the exact number is not on record here.

T11 sequence (Q96G91 whole entry, species assumed): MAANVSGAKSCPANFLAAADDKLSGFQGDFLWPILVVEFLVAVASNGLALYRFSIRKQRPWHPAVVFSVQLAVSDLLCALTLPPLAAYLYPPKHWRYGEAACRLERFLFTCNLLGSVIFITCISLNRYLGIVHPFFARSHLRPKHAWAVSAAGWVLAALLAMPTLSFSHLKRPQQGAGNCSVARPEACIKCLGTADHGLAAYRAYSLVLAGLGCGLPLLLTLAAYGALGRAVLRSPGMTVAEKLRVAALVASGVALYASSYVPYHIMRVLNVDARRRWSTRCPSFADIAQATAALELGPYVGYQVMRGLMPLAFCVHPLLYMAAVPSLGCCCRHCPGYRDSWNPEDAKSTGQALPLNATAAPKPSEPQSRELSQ
T8 sequence (P30550 whole entry): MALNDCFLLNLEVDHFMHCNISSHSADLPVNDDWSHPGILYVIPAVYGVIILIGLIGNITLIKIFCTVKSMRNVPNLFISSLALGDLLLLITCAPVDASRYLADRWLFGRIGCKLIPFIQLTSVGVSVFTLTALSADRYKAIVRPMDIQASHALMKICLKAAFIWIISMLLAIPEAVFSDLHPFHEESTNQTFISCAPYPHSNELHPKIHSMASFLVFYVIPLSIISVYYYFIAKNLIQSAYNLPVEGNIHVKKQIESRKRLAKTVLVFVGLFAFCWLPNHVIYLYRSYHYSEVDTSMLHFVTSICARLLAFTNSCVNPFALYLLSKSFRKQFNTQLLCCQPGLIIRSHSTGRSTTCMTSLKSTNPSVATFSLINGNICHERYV
T9 sequence (P30559 whole entry): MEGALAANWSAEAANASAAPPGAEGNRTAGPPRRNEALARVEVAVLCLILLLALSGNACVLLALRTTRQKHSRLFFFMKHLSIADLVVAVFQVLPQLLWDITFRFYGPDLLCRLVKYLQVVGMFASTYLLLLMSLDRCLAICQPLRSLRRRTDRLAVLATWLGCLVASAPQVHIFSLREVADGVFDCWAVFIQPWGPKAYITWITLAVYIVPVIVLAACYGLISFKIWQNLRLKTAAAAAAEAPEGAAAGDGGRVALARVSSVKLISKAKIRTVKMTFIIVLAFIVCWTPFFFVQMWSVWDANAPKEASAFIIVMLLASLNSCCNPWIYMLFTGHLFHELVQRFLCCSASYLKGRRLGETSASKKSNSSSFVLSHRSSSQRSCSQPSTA
T2 sequence (P51677 whole entry, species assumed): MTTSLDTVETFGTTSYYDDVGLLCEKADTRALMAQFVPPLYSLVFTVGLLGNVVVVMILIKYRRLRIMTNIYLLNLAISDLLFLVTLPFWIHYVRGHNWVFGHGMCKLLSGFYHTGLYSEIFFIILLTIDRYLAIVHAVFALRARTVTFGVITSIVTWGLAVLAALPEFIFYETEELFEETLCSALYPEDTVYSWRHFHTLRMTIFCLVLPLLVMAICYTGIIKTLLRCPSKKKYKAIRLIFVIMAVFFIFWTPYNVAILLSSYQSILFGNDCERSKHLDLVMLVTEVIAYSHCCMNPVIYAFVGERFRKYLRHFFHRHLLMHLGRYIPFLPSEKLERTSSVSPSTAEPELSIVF
T10 sequence (Q8TCW9 whole entry): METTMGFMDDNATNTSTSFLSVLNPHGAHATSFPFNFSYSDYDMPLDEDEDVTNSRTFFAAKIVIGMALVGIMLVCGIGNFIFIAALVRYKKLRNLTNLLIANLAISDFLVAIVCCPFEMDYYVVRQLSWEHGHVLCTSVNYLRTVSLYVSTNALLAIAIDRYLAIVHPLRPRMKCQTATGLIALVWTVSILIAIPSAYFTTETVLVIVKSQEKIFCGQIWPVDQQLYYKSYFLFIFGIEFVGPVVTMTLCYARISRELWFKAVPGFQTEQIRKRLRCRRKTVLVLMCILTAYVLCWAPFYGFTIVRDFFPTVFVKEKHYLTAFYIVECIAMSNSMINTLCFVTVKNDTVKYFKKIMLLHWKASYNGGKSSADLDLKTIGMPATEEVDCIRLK
Sequence of GPR68 (Q15743 whole entry): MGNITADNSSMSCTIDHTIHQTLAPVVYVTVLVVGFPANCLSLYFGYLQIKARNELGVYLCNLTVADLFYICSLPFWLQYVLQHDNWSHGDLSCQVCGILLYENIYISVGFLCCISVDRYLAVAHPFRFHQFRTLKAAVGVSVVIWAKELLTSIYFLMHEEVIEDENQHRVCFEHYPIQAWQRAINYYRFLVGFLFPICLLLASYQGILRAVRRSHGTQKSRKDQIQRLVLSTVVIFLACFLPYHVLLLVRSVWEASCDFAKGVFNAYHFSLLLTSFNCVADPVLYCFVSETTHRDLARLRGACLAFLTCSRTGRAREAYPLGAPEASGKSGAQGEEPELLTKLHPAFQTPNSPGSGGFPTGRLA
T12 sequence (Q15418 62-321 limits assumed): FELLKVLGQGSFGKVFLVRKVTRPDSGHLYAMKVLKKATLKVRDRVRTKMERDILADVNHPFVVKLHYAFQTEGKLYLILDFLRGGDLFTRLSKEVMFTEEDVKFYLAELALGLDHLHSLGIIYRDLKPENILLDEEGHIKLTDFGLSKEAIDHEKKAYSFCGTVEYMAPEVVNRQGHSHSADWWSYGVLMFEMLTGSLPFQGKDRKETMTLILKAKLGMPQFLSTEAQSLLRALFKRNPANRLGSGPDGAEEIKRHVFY
T7 sequence (Q15349 415-672 limits assumed): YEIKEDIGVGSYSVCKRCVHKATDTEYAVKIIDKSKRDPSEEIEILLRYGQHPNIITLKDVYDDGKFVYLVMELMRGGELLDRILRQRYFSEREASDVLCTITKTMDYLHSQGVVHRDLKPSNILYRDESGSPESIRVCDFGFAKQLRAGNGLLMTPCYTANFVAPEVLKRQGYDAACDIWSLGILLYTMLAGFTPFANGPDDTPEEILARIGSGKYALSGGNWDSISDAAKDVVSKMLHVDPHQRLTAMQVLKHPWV
T6 sequence (Q6ZN16 whole entry): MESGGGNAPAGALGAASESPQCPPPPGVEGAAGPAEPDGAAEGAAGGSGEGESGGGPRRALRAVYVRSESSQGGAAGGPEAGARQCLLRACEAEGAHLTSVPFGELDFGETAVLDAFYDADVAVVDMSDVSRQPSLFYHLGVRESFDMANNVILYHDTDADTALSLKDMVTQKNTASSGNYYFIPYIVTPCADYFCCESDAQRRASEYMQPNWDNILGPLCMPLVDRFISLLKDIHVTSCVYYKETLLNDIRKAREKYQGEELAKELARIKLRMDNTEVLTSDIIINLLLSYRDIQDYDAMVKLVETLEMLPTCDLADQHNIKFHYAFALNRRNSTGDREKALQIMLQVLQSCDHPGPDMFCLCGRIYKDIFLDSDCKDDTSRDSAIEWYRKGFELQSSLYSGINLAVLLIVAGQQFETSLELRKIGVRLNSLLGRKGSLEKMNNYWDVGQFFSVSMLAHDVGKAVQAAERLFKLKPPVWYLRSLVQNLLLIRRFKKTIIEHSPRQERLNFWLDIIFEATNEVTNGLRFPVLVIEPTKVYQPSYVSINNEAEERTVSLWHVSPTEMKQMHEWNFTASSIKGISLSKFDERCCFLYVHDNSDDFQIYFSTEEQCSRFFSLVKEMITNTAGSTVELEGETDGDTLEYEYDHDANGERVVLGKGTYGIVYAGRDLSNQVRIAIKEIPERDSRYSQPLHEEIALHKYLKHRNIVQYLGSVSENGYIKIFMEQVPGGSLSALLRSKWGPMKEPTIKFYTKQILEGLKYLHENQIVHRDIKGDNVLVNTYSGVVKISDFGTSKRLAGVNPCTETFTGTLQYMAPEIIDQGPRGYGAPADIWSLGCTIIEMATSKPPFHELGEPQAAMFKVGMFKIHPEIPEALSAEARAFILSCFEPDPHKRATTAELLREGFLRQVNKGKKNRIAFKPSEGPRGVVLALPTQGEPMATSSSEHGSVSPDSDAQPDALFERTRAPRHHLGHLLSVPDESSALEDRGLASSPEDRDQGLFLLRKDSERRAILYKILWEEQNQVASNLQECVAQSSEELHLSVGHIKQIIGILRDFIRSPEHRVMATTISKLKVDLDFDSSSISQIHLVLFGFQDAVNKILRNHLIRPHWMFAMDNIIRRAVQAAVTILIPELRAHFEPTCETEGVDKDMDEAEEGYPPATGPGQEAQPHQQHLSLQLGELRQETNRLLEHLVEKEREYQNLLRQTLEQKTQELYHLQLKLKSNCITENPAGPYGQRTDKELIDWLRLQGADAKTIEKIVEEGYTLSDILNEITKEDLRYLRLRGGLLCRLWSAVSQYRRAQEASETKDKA
T5 sequence (Q8IWQ3 whole entry): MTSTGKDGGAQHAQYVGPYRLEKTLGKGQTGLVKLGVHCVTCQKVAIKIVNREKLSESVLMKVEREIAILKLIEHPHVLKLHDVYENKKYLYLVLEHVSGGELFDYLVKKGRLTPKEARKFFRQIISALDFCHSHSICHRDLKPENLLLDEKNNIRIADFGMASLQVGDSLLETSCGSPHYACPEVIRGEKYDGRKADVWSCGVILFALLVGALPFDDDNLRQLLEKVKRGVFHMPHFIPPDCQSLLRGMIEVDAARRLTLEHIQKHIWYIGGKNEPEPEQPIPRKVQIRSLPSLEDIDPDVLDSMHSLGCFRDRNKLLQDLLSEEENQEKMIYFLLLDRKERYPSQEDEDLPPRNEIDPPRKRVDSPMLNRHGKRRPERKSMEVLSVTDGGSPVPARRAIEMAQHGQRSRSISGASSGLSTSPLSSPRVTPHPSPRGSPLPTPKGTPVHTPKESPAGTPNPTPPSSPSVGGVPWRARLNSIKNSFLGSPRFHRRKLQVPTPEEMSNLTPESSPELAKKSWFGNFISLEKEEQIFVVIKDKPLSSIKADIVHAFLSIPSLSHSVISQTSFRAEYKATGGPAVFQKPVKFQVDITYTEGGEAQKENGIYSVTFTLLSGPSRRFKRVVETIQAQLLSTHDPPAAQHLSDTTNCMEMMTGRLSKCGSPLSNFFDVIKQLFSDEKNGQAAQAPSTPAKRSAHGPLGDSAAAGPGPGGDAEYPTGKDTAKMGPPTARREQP

On to `CCc1ccc2c(c1)C1(NN=C(c3cccc4ccccc34)S1)C(=O)N2` (stereo not drawn) [OGM1, 5-ethyl-5′-naphthalen-1-ylspiro[1H-indole-3,2′-3H-1,3,4-thiadiazole]-2-one], for which the remaining binding at 10 µM in experiment [1] amounted to 100%; on PLK1, 100%; at ZAK, 100%; on BRSK2, 100%; on MAP3K15, 100%; in experiment [2], 54%. The remaining binding at 10 µM came to 78% in experiment [3], 100% on EPHA6 and 100% on PIP5K2C. In addition, the Antagonism is reported as −9.9 on CCR3 (10 uM); 0 at BB2 (10 uM); −2.4 at OT (10 uM); −8 on PK1 (10 uM); −8.2 at P2Y11 (10 uM). Moreover, the Agonism on CCR3 (12.5 uM) was 0.8; on BB2 (12.5 uM), −0.2; on OT (12.5 uM), 0.7; at PK1 (12.5 uM), 0.2; on P2Y11 (12.5 uM), −0.1.

For `CCc1ccc2c(c1)C1(NN=C(c3ccccc3)S1)C(=O)N2` (stereo not drawn) [OGM2], at GPR68, the “calcium response to 34 dyn/cm^2 flow” value is “inhibited”. The results for the Class result in the experiment on NCI-H82, in the experiment on NCI-H82 (Table 13) and with RWGT2 were “Mildly”, “Low” and “Very Sensitive (Very Sensitive (LC50<2 μM))”, respectively. Besides, the “% Survival 2 μM OGM” value in the experiment on NCI-H82 (72 hours) amounted to 102.6%; in the experiment on RWGT2 (72 hours), 39.9%. Also, the entries for the “% Survival 10 μM OGM” value in the experiment with NCI-H82 (72 hours) and in the experiment on RWGT2 (72 hours) were 59.9% and 37.1%, respectively. The CC50 is above 10 µM in the experiment on NCI-H82 (Homo sapiens, NCI-H82, 72 hours, read-out: LC50 (the source's name)) and below 2 µM with RWGT2 (Homo sapiens, 72 hours, read-out: LC50 (the source's name)). For the same compound, the migration entry in the experiment with PANC02 is reported as “significantly reduced migration”.

The values are drawn from patent US20240327364A1, “THERAPEUTIC TARGETING OF GPR68 TO INDUCE FERROPTOSIS” (University Of Maryland, Baltimore, priority 2023, published 2024).
